Data on 22 compounds can be found in US20250084074A1, “SUBSTITUTED HETEROCYCLES AS HSET INHIBITORS” (MERCK PATENT GMBH, priority 2022, published 2025).

Sequence of HSET full length protein (Q9BW19 whole entry): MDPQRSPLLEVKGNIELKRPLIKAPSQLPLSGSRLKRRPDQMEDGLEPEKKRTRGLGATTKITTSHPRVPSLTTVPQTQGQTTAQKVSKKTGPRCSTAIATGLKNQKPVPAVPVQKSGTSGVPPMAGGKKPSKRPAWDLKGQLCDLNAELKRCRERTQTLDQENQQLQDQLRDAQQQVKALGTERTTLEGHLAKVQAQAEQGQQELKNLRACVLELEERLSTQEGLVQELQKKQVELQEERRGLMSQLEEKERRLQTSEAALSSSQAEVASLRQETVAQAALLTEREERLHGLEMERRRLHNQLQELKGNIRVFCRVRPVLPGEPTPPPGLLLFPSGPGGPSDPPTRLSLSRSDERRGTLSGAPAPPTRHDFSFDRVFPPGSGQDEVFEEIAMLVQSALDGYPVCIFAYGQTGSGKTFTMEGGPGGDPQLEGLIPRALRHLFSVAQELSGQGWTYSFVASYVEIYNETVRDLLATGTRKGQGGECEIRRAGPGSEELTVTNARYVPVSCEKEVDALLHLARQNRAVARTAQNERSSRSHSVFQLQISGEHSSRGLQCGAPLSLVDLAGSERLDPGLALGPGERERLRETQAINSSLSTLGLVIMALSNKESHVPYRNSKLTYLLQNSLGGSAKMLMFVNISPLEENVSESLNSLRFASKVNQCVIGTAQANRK

The target in the experiment is HSET full length protein (Homo sapiens (Human), UniProt Q9BW19). Kind of experiment: HSET ADP-Glo Assay S - 3 μM ATP. In kind it is biochemical. To be noted: 5 nM HSET, 70 μg/mL microtubule, 80 min at rt, read-out: COMBINED HSET ADP GLO IC50. Here is the method:
Example 281: Testing compounds of the present invention for inhibitory activities against HSET—HSET ADP-Glo Assay S—3 μM ATP
Reagents: (+4° C. Storage) • Paclitaxel Prod.No.TXD.01 2 mM in DMSO (from Universal Biologicals Cambridge). • Tubulin Protein (Pre-formed Microtubules): Bovine Brain Prod.No.MT001-XL Lot.025 10 mg/mL (from Universal Biologicals Cambridge).
Reagents: (−80° C. Storage) • MT001-XL—Tubulin Protein (Pre-formed Microtubules): Bovine Brain—reconstituted in buffer—15 mM PIPES pH7, 1 mM MgCl2, 20 μM paclitaxel (aliquots at 10 mg/mL) from Universal Biologicals Cambridge. • HSET full length protein—Current batch is FL HSET Prep1 (SEQ-000096_002-01_01) • Buffer is 20 mM Hepes pH 7.5, 200 mM NaCl, 2 mM TCEP, 5% glycerol (5 μL aliquots at 10.2 μM)
Reagents: (−20° C. Storage) • ADP-Glo Kinase Assay kit (Promega Prod.No.V9102) 10,000 assay points • ADP-Glo reagent (50 mL), Kinase Detection Reagent (100 mL), and Ultrapure ATP (10 mM) aliquoted
Buffer Stocks (filtered and stored at rt for up to 1 month) • HEPES acid, 4-(2-Hydroxyethyl)piperazine-1-ethanesulfonic acid MW:238, 238.3 mg/mL=1 M • 7149 mg/30 mL=1M (pH to 6.8 with 5 M NaOH) • PIPES, 1,4-Piperazinediethanesulfonic acid MW: 302.4, 30.24 mg/mL=100 mM; 907.2 mg/30 mL=100 mM (pH to 7 with 5 M NaOH, white cloudy suspension until the pH changes) • EGTA, Ethylene glycol-bis(2-aminoethylether)-N,N,N′,N′-tetraacetic acid MW: 380.35, 38.035 mg/mL=100 mM • 1901.75 mg/50 mL=100 mM (pH to ˜7 with 5 M NaOH)—takes a long time to get into solution and for pH to stabilize • Triton-X-100, MW: 625, 62.5 mg/mL=100 mM (6.25% w/v) (viscous, pipette Triton X-100 with a Gilson using a trimmed pipette tip)
ECHO Protocol • Create an ECHO intermediate plate by adding 24.5 μL DMSO to columns 1 & 2, and 40 μL DMSO to columns 23 & 24 of an ECHO 384PP plate • Add 100 nL of compound/DMSO per well in 384-well Proxi-Plate Plus (white) —Perkin Elmer Cat #6008289 using ECHO dose response protocol 100 nL normal to proxi_8pt_200 uM.
Assay buffer (Keep on ice): HEPES pH 6.8, MgCl2, EGTA, Triton X-100, DTT, HPLC H2O Microtubule Working Solution (3.2): • 1 ml PM buffer: PIPES pH 7.0, MgCl2, HPLC H2O, Paclitaxel, mix well, store at rt • Then add 26.4 μL of 10 mg/ml microtubules to 724 μL of the above PM buffer to make 750 μL of microtubule working solution @350 μg/mL microtubules (store at rt)
Stock HSET enzyme solution (3.1)—keep on ice • Add 1.33 μL 10.2 μM HSET Prepi (SEQ-000096_002-01_01) to 1358 μL assay buffer to make a 10 nM stock for a 5 nM final assay concentration (1/1020 dilution).
HSET/Microtubule working solution (3.3) • Mix solutions 3.1 and 3.2 in the ratio of 2.5:1 (1214.3 μL 3.1+485.7 μL 3.2) keep at rt for 15 min • 3.2 is diluted 3.5-fold, 3.1 is diluted 1.4-fold BLANK solution is 357 μL 2XAB+143 μL microtubule working solution 3.2. (Same proportions as HSET/Microtubule working solution (3.3))
ATP Working solution is 1 μL 10 mM UltraPure ATP (Promega kit)+999 μL ddH20 gives 10 μM ATP for a 3 μM final assay concentration, stored on ice.
Assay procedure in PROXIPLATE 384 PLUS WHITE (Perkin Elmer) plates (Remove 2.4 mL ADP Glo and 4.5 mL Kinase detection reagent from freezer to warm up to rt) • Add 3.5 μL BLANK solution to assay plate (column 12) • Add 3.5 μL HSET/Microtubule solution (3.3) (columns 1-11 & 13-24) • Centrifuge at 1000 rpm for 1 min • (pre-incubate enzyme and compound for 10 min)
Add 1.5 μL of 10 μM ATP to start reaction gives a final [HSET] of 5 nM, [ATP] of 3 μM and [microtubule] of 70 μg/mL, centrifuge at 1000 rpm for 1 min and incubated at rt for 80 min.
After the 80-minute incubation, stop reaction by adding 5 μL ADP-Glo reagent to all wells. Centrifuge for 1 min at 1000 rpm, leave for 40 min at rt.
In the dark/away from direct light, add 10 μL Kinase Detection Reagent (KDR) to all wells, Seal plate with a Topseal (Perkin Elmer Cat #6050185) and centrifuge as above, leave for 40 min at rt covered in foil. […]
Usually IC50 stands for the concentration at which inhibition is half-maximal. Turning to `Cc1nc(-c2ccc3ccnc(N[C@H]4C[C@@H](C(=O)Nc5nc(C)c(C(=O)O[C@H](C)C(F)(F)F)s5)C4)c3c2)no1` (stereo in doubt) [Example 114, [(1 R)-2,2,2-trifluoro-1-methyl-ethyl]4-methyl-2-[[3-[[7-(5-methyl-1,2,4-oxadiazol-3-yl)-1-isoquinolyl]amino]cyclobutanecarbonyl]amino]thiazole-5-carboxylate], the IC50 amounted to 17 nM. The figure for `Cc1nc(-c2ccc3ccnc(N[C@H]4C[C@@H](C(=O)Nc5nc(C)c(C(=O)O[C@@H](C)C(F)(F)F)s5)C4)c3c2)no1` (stereo in doubt) [Example 115, [(1 S)-2,2,2-trifluoro-1-methyl-ethyl]4-methyl-2-[[3-[[7-(5-methyl-1,2,4-oxadiazol-3-yl)-1-isoquinolyl]amino]cyclobutanecarbonyl]amino]thiazole-5-carboxylate] is 5 nM; for `CCOC(=O)c1sc(NC(=O)CCNC(=O)c2cccc(C)c2)nc1C` [Example 1, Ethyl 4-methyl-2-(3-(3-methylbenzamido)propanamido)thiazole-5-carboxylate] it is 2730 nM; for `CCOC(=O)c1sc(NC(=O)CCNC(=O)c2cccc(N3CCCC3)c2)nc1C` [Example 2, Ethyl 4-methyl-2-(3-(3-(pyrrolidin-1-yl)benzamido)propanamido)thiazole-5-carboxylate] it is 3970 nM. As to `CCOC(=O)c1sc(NC(=O)CCNC(=O)c2cccc(-n3cccn3)c2)nc1C` [Example 3, Ethyl 2-(3-(3-(1 H-pyrazol-1-yl)benzamido)propanamido)-4-methylthiazole-5-carboxylate], the IC50 stood at 4570 nM. The result for `CCOC(=O)c1sc(NC(=O)CCNC(=O)c2cccc(-c3noc(C)n3)c2)nc1C` [Example 4, Ethyl 4-methyl-2-(3-(3-(5-methyl-1,2,4-oxadiazol-3-yl)benzamido)propanamido)thiazole-5-carboxylate] reads 63 nM; that for `CCOC(=O)c1sc(NC(=O)CCNC(=O)c2ccc3c(c2)CCCC3)nc1C` [Example 5, Ethyl 4-methyl-2-(3-(5,6,7,8-tetrahydronaphthalene-2-carboxamido)propanamido)thiazole-5-carboxylate], 1660 nM; that for `CCOC(=O)c1sc(NC(=O)CCNC(=O)c2cccc(-c3cnco3)c2)nc1C` [Example 6, Ethyl 4-methyl-2-(3-(3-(oxazol-5-yl)benzamido)propanamido)thiazole-5-carboxylate], 614 nM. Regarding `CCOC(=O)c1sc(NC(=O)CCNC(=O)c2cccc(N3CCOCC3)c2)nc1C` [Example 7, Ethyl 4-methyl-2-(3-(3-morpholinobenzamido)propanamido)thiazole-5-carboxylate], the IC50 stood at 15600 nM. `CCOC(=O)c1sc(NC(=O)[C@@H](O)CNC(=O)c2cccc(C)c2)nc1C` [Example 8, Ethyl (S)-2-(2-hydroxy-3-(3-methylbenzamido)propanamido)-4-methylthiazole-5-carboxylate]: the IC50 was 1210 nM.

For the compound `CCOC(=O)c1sc(NC(=O)CCNC(=O)c2cc(F)cc(C(=O)OC)c2)nc1C` [Example 10, Ethyl 2-[3-[(3-fluoro-5-methoxycarbonyl-benzoyl)amino]propanoylamino]-4-methyl-thiazole-5-carboxylate], the concentration for half-maximal inhibition (IC50) stood at 36 nM. Turning to `CCOC(=O)c1sc(NC(=O)CCNC(=O)c2cccc(C(=O)OC)c2F)nc1C` [Example 11, Ethyl 2-[3-[(2-fluoro-3-methoxycarbonyl-benzoyl)amino]propanoylamino]-4-methyl-thiazole-5-carboxylate], the IC50 stood at 1830 nM. In the case of `CCOC(=O)c1sc(NC(=O)CCNC(=O)c2cc(C(=O)OC)ccc2Cl)nc1C` [Example 12, Ethyl 2-[3-[(2-chloro-5-methoxycarbonyl-benzoyl)amino]propanoylamino]-4-methyl-thiazole-5-carboxylate], the IC50 was found to be 1100 nM.

As for `CCOC(=O)c1sc(NC(=O)CCNC(=O)c2cc(Cl)cc(C(=O)OC)c2)nc1C` [Example 13, Ethyl 2-[3-[(3-chloro-5-methoxycarbonyl-benzoyl)amino]propanoylamino]-4-methyl-thiazole-5-carboxylate], the IC50 worked out at 9 nM. The figure for `CCOC(=O)c1sc(NC(=O)CCNC(=O)c2ccc(C)c(C(=O)OC)c2)nc1C` [Example 14, Ethyl 2-[3-[(3-methoxycarbonyl-4-methyl-benzoyl)amino]propanoylamino]-4-methyl-thiazole-5-carboxylate] is 325 nM; for `CCOC(=O)c1sc(NC(=O)CCNC(=O)c2cc(C)cc(C(=O)OC)c2)nc1C` [Example 15, Ethyl 2-[3-[(3-methoxycarbonyl-5-methyl-benzoyl)amino]propanoylamino]-4-methyl-thiazole-5-carboxylate] it is 9 nM. As for `CCOC(=O)c1sc(NC(=O)CCNC(=O)c2cc(OC)cc(C(=O)OC)c2)nc1C` [Example 16, Ethyl 2-[3-[(3-methoxy-5-methoxycarbonyl-benzoyl)amino]propanoylamino]-4-methyl-thiazole-5-carboxylate], the IC50 was 301 nM. In the case of `CCOC(=O)c1sc(NC(=O)CCNC(=O)c2cc(C#N)cc(C(=O)OC)c2)nc1C` [Example 17, Ethyl 2-[3-[(3-cyano-5-methoxycarbonyl-benzoyl)amino]propanoylamino]-4-methyl-thiazole-5-carboxylate], the IC50 was 869 nM. In the case of `CCOC(=O)c1sc(NC(=O)CCNC(=O)c2cc(Br)cc(C(=O)OC)c2)nc1C` [Example 18, Ethyl 2-[3-[(3-bromo-5-methoxycarbonyl-benzoyl)amino]propanoylamino]-4-methyl-thiazole-5-carboxylate], the IC50 came out at 14 nM. `CCOC(=O)c1sc(NC(=O)CCNC(=O)c2cc(CC)cc(C(=O)OC)c2)nc1C` [Example 19, Ethyl 2-[3-[(3-ethyl-5-methoxycarbonyl-benzoyl)amino]-propanoylamino]-4-methyl-thiazole-5-carboxylate]: the IC50 amounted to 17 nM.

`CCOC(=O)c1sc(NC(=O)CCNC(=O)c2cc(O)cc(C(=O)OC)c2)nc1C` [Example 20, Ethyl 2-[3-[(3-hydroxy-5-methoxycarbonyl-benzoyl)amino]-propanoylamino]-4-methyl-thiazole-5-carboxylate]: the half-maximal inhibitory concentration (IC50) is 737 nM. The figure for `CCOC(=O)c1sc(NCCCNC(=O)c2cccc(-c3noc(C)n3)c2)nc1C` [Example 21, Ethyl 4-methyl-2-[3-[[3-(5-methyl-1,2,4-oxadiazol-3-yl)benzoyl]amino]-propylamino]thiazole-5-carboxylate] is 17100 nM.
